Assay results reported in US4552701A, “Glycopeptide antibiotics and process of preparation” (Eli Lilly and Company, priority 1984, dated 1985).
In brackets after ≈: the same amount, converted by molar mass.

Assays:
[1] = system: Staphylococcus epidermidis EP11; format: cell-based; conditions: agar dilution
[2] = system: Staphylococcus epidermidis 222; format: cell-based; conditions: agar dilution
[3] = system: Streptococcus pyogenes C203; format: cell-based; conditions: agar dilution
[4] = system: Streptococcus pneumoniae Park 1; format: cell-based; conditions: agar dilution
[5] = system: Streptococcus faecium ATCC 9790; format: cell-based; conditions: agar dilution
[6] = system: Streptococcus sp. group D 2041; format: cell-based; conditions: agar dilution
[7] = system: Haemophilus influenzae C.L.; format: cell-based; conditions: agar dilution
[8] = system: Haemophilus influenzae 76; format: cell-based; conditions: agar dilution
[9] = system: Escherichia coli N10; format: cell-based; conditions: agar dilution
[10] = system: Escherichia coli EC14; format: cell-based; conditions: agar dilution
[11] = system: Escherichia coli TEM; format: cell-based; conditions: agar dilution
[12] = system: Klebsiella pneumonia X26; format: cell-based; conditions: agar dilution
[13] = system: Klebsiella pneumonia X68; format: cell-based; conditions: agar dilution
[14] = system: Klebsiella pneumonia KAE; format: cell-based; conditions: agar dilution
[15] = system: Staphylococcus aureus; experiment: experimental bacterial infection in mice, ED50; format: in vivo; conditions: subcutaneous, two doses
Procedure: (§1) The formula 1 compounds have also shown in vivo antimicrobial activity against experimental bacterial infections. When two doses of test compound were administered to mice in experimental infections, the activity observed was measured as an ED50 value [effective dose in mg/kg to protect 50% of the test animals: see Warren Wick, et al., J. Bacteriol. 81, 233-235 (1961)].

[16] = system: Streptococcus pneumoniae; experiment: experimental bacterial infection in mice, ED50; format: in vivo; conditions: subcutaneous, two doses
Procedure: as §1

[17] = system: Streptococcus pyogenes; experiment: experimental bacterial infection in mice, ED50; format: in vivo; conditions: subcutaneous, two doses
Procedure: as §1

[18] = system: Staphylococcus aureus NRRL B313; conditions: agar dilution
[19] = system: Staphylococcus aureus V41; conditions: agar dilution
[20] = system: Staphylococcus aureus X400; conditions: agar dilution
[21] = system: Clostridium difficile 2994; format: cell-based; conditions: agar dilution, read after 24 hrs
Procedure: (§2) | read after 24hrs. incubation.

[22] = system: Clostridium septicum 1128; format: cell-based; conditions: agar dilution, read after 24 hrs
Procedure: as §2

[23] = system: Clostridium perfringens 81; format: cell-based; conditions: agar dilution, read after 24 hrs
[24] = system: Eubacterium aerofaciens 1235; format: cell-based; conditions: agar dilution, read after 24 hrs
[25] = system: Peptococcus asaccharolyticus 1302; format: cell-based; conditions: agar dilution, read after 24 hrs
[26] = system: Peptostreptococcus anaerobius 1428; format: cell-based; conditions: agar dilution, read after 24 hrs
[27] = system: Peptostreptococcus intermedius 1264; format: cell-based; conditions: agar dilution, read after 24 hrs
[28] = system: Propionibacterium acnes 79; format: cell-based; conditions: agar dilution, read after 24 hrs
[29] = system: Bacteroides fragilis 111; format: cell-based; conditions: agar dilution, read after 24 hrs
[30] = system: Bacteroides fragilis 1877; format: cell-based; conditions: agar dilution, read after 24 hrs
[31] = system: Bacteroides fragilis 1936B; format: cell-based; conditions: agar dilution, read after 24 hrs
[32] = system: Bacteroides thetaiotaomicron 1438; format: cell-based; conditions: agar dilution, read after 24 hrs
[33] = system: Bacteroides melaninogenicus 1856/28; format: cell-based; conditions: agar dilution, read after 24 hrs
[34] = system: Bacteroides melaninogenicus 2736; format: cell-based; conditions: agar dilution, read after 24 hrs
[35] = system: Bacteroides vulgatis 1211; format: cell-based; conditions: agar dilution, read after 24 hrs
[36] = system: Bacteroides corrodens 1874; format: cell-based; conditions: agar dilution, read after 24 hrs
[37] = system: Fusobacterium symbiosum 1470; format: cell-based; conditions: agar dilution, read after 24 hrs
[38] = system: Fusobacterium necrophorum 6054A; format: cell-based; conditions: agar dilution, read after 24 hrs
[39] = system: Peptococcus prevoti 1281; conditions: agar dilution, read after 24 hrs
[40] = system: gram-positive microorganisms; experiment: in vitro antibacterial activity (general statement); format: cell-based; conditions: statement in words

| SMILES | MIC [1] | MIC [2] | MIC [3] | MIC [4] | MIC [5] | MIC [6] | MIC [7] | MIC [8] | MIC [9] | MIC [10] | MIC [11] | MIC [12] | MIC [13] | MIC [14] | ED50 [15] | ED50 [16] | ED50 [17] | MIC [18] | MIC [19] | MIC [20] | also measured |
| --- | --- | --- | --- | --- | --- | --- | --- | --- | --- | --- | --- | --- | --- | --- | --- | --- | --- | --- | --- | --- | --- |
| CC(C)C[C@H](C(=O)N[C@H]1C(=O)N[C@@H](CC(N)=O)C(=O)N[C@H]2C(=O)N[C@H]3C(=O)N[C@H](C(=O)N[C@H](C(=O)[O-])c4cc(O)cc(O)c4-c4cc3ccc4O)[C@H](O)c3ccc(c(Cl)c3)Oc3cc2cc(c3O)Oc2ccc(cc2Cl)[C@H]1O)[N+](C)(C)C [Compound 11, Agluco-M43A] | 2 mg/L (≈ 1.71 µM) | 2 mg/L (≈ 1.71 µM) | 2 mg/L (≈ 1.71 µM) | 1 mg/L (≈ 0.853 µM) | 2 mg/L (≈ 1.71 µM) | 4 mg/L (≈ 3.41 µM) | 128 mg/L (≈ 109 µM) | 32 mg/L (≈ 27.3 µM) | > 128 mg/L | > 128 mg/L | > 128 mg/L | > 128 mg/L | > 128 mg/L | > 128 mg/L | 3.06 mg/kg/2 | 3.06 mg/kg/2 | 3.63 mg/kg/2 | 2 mg/L (≈ 1.71 µM) | 2 mg/L (≈ 1.71 µM) | 2 mg/L (≈ 1.71 µM) | – |
| CC(C)C[C@@H](N)C(=O)N[C@H]1C(=O)N[C@@H](CC(N)=O)C(=O)N[C@H]2C(=O)N[C@H]3C(=O)N[C@H](C(=O)N[C@H](C(=O)O)c4cc(O)cc(O)c4-c4cc3ccc4O)[C@H](O)c3ccc(c(Cl)c3)Oc3cc2cc(c3O)Oc2ccc(cc2Cl)[C@H]1O [Compound 9, Agluco-A51568A] | 1 mg/L (≈ 0.885 µM) | 1 mg/L (≈ 0.885 µM) | 1 mg/L (≈ 0.885 µM) | 0.5 mg/L (≈ 0.443 µM) | 1 mg/L (≈ 0.885 µM) | 2 mg/L (≈ 1.77 µM) | 128 mg/L (≈ 113 µM) | 128 mg/L (≈ 113 µM) | > 128 mg/L | > 128 mg/L | > 128 mg/L | > 128 mg/L | > 128 mg/L | > 128 mg/L | 0.74 mg/kg/2 | 1.8 mg/kg/2 | 2.0 mg/kg/2 | 0.5 mg/L (≈ 0.443 µM) | 0.5 mg/L (≈ 0.443 µM) | 0.5 mg/L (≈ 0.443 µM) | MIC [21]: 1 mg/L (≈ 0.885 µM); MIC [22]: 1 mg/L (≈ 0.885 µM); MIC [23]: 1 mg/L (≈ 0.885 µM); MIC [24]: 1 mg/L (≈ 0.885 µM); MIC [25]: 1 mg/L (≈ 0.885 µM); MIC [26]: ≥ 0.5 mg/L; MIC [27]: 1 mg/L (≈ 0.885 µM); MIC [28]: 1 mg/L (≈ 0.885 µM); MIC [29]: 64 mg/L (≈ 56.6 µM); MIC [30]: 64 mg/L (≈ 56.6 µM); MIC [31]: 64 mg/L (≈ 56.6 µM); MIC [32]: 64 mg/L (≈ 56.6 µM); MIC [33]: > 128 mg/L; MIC [34]: 4 mg/L (≈ 3.54 µM); MIC [35]: 1 mg/L (≈ 0.885 µM); MIC [36]: 64 mg/L (≈ 56.6 µM); MIC [37]: 4 mg/L (≈ 3.54 µM); MIC [38]: ≥ 0.5 mg/L; MIC [39]: 1 mg/L (≈ 0.885 µM) |
| CN[C@H](CC(C)C)C(=O)N[C@H]1C(=O)N[C@@H](CC(N)=O)C(=O)N[C@H]2C(=O)N[C@H]3C(=O)N[C@H](C(=O)N[C@H](C(=O)O)c4cc(O)cc(O)c4-c4cc3ccc4O)[C@H](O)c3ccc(c(Cl)c3)Oc3cc2cc(c3O)Oc2ccc(cc2Cl)[C@H]1O [Compound 10, aglucovancomycin] | 2 mg/L (≈ 1.75 µM) | 1 mg/L (≈ 0.874 µM) | 0.5 mg/L (≈ 0.437 µM) | 0.5 mg/L (≈ 0.437 µM) | 1 mg/L (≈ 0.874 µM) | 64 mg/L (≈ 55.9 µM) | 64 mg/L (≈ 55.9 µM) | 64 mg/L (≈ 55.9 µM) | > 128 mg/L | > 128 mg/L | 64 mg/L (≈ 55.9 µM) | > 128 mg/L | > 128 mg/L | > 128 mg/L | 8.75 mg/kg/2 | 16.54 mg/kg/2 | 22.3 mg/kg/2 | 0.5 mg/L (≈ 0.437 µM) | 1 mg/L (≈ 0.874 µM) | 1 mg/L (≈ 0.874 µM) | MIC [21]: 8 mg/L (≈ 6.99 µM); MIC [22]: 8 mg/L (≈ 6.99 µM); MIC [23]: 8 mg/L (≈ 6.99 µM); MIC [24]: 128 mg/L (≈ 112 µM); MIC [25]: 64 mg/L (≈ 55.9 µM); MIC [26]: 32 mg/L (≈ 28 µM); MIC [27]: > 128 mg/L; MIC [28]: 8 mg/L (≈ 6.99 µM); MIC [29]: > 128 mg/L; MIC [30]: 128 mg/L (≈ 112 µM); MIC [31]: > 128 mg/L; MIC [32]: > 128 mg/L; MIC [33]: > 128 mg/L; MIC [34]: 128 mg/L (≈ 112 µM); MIC [35]: 128 mg/L (≈ 112 µM); MIC [36]: > 128 mg/L; MIC [37]: 8 mg/L (≈ 6.99 µM); MIC [38]: 2 mg/L (≈ 1.75 µM); antibacterial activity [40]: good in vitro antibacterial activity; MIC [39]: 8 mg/L (≈ 6.99 µM) |
| CC(C)C[C@H](C(=O)N[C@H]1C(=O)N[C@@H](CC(N)=O)C(=O)N[C@H]2C(=O)N[C@H]3C(=O)N[C@H](C(=O)N[C@H](C(=O)[O-])c4cc(O)cc(O)c4-c4cc3ccc4O)[C@H](O)c3ccc(c(Cl)c3)Oc3cc2cc(c3O[C@@H]2O[C@H](CO)[C@@H](O)[C@H](O)[C@H]2O)Oc2ccc(cc2Cl)[C@H]1O)[N+](C)(C)C [Compound 5, M43C] | 8 mg/L (≈ 6 µM) | 4 mg/L (≈ 3 µM) | 1 mg/L (≈ 0.75 µM) | 1 mg/L (≈ 0.75 µM) | 4 mg/L (≈ 3 µM) | 8 mg/L (≈ 6 µM) | > 64 mg/L | 64 mg/L (≈ 48 µM) | > 64 mg/L | > 64 mg/L | > 64 mg/L | > 64 mg/L | > 64 mg/L | > 64 mg/L | – | – | – | 2 mg/L (≈ 1.5 µM) | 2 mg/L (≈ 1.5 µM) | 2 mg/L (≈ 1.5 µM) | – |
| CN[C@H](CC(C)C)C(=O)N[C@H]1C(=O)N[C@@H](CC(N)=O)C(=O)N[C@H]2C(=O)N[C@H]3C(=O)N[C@H](C(=O)N[C@H](C(=O)O)c4cc(O)cc(O)c4-c4cc3ccc4O)[C@H](O)c3ccc(c(Cl)c3)Oc3cc2cc(c3O[C@@H]2O[C@H](CO)[C@@H](O)[C@H](O)[C@H]2O)Oc2ccc(cc2Cl)[C@H]1O [Compound 13, Desvancosamine-Vancomycin] | 16 mg/L (≈ 12.3 µM) | 8 mg/L (≈ 6.13 µM) | 4 mg/L (≈ 3.06 µM) | 4 mg/L (≈ 3.06 µM) | 8 mg/L (≈ 6.13 µM) | 32 mg/L (≈ 24.5 µM) | > 128 mg/L | 128 mg/L (≈ 98 µM) | > 128 mg/L | > 128 mg/L | > 128 mg/L | > 128 mg/L | > 128 mg/L | > 128 mg/L | – | – | – | 8 mg/L (≈ 6.13 µM) | 8 mg/L (≈ 6.13 µM) | 8 mg/L (≈ 6.13 µM) | – |
| CC(C)C[C@@H](N)C(=O)N[C@H]1C(=O)N[C@@H](CC(N)=O)C(=O)N[C@H]2C(=O)N[C@H]3C(=O)N[C@H](C(=O)N[C@H](C(=O)O)c4cc(O)cc(O)c4-c4cc3ccc4O)[C@H](O)c3ccc(c(Cl)c3)Oc3cc2cc(c3O[C@@H]2O[C@H](CO)[C@@H](O)[C@H](O)[C@H]2O)Oc2ccc(cc2Cl)[C@H]1O [Compound 12, Desvancosamine-A51568A] | 4 mg/L (≈ 3.1 µM) | 4 mg/L (≈ 3.1 µM) | 2 mg/L (≈ 1.55 µM) | 1 mg/L (≈ 0.774 µM) | 4 mg/L (≈ 3.1 µM) | 8 mg/L (≈ 6.19 µM) | > 128 mg/L | > 128 mg/L | > 128 mg/L | > 128 mg/L | 128 mg/L (≈ 99.1 µM) | > 128 mg/L | > 128 mg/L | > 128 mg/L | – | – | – | 2 mg/L (≈ 1.55 µM) | 2 mg/L (≈ 1.55 µM) | 2 mg/L (≈ 1.55 µM) | – |
